Holding throughout (assay type): cell-based, human
One assay relates to HL60. In words: alamarBlue cytotoxicity assay, HL60. As to conditions: 72 h of incubation. On the procedure: (§1) To assess the cytotoxicity of the GLI inhibitor GANT61 (Sigma-Aldrich, St. Louis, MO, USA) in tumor and non-tumor cell lines, an alamarBlue assay (Sigma-Aldrich Chemical Co, St. Louis, MO, USA) was performed after 72 h of exposure to the inhibitor, as described by Ahmed et al., 1994 [46]. Cells were distributed on 96-well plates at a density of 7 × 10^4 cells/mL for adhered cells, and 3 × 10^5 cells/mL for cells in suspension. All tested compounds were dissolved in DMSO, added to wells containing 100 µL of cells in complete medium, and then incubated for 72 h. Eight concentrations of GANT61 (0.19 to 50 µg/mL), Doxorubicin (Laboratory IMA S.A.I.C., Buenos Aires, Argentina), and 5-Fluorouracil (5-FU, Sigma-Aldrich, St. Louis, MO, USA), both used as positive controls at concentrations ranging from 0.03 to 5 µg/mL, were added to respective wells. […] Absorbance was measured at 570 nm (reduced) and 595 nm (oxidized) wavelengths, using a Spectramax 190 plate reader (Molecular Devices; Sunnyvale, CA, USA).
(§2) Statistical analyses were performed, using GraphPad Prism v. […] Data were analyzed according to distribution along the normal Gaussian curve. […] Differences between groups resulting from in vitro assays were evaluated by ANOVA (analysis of variance) testing, followed by the Student–Newman–Keuls test. […]

The subject of another assay is GLI1 mRNA. Description: qPCR of HH pathway gene expression in HSC3 cells, GLI1. As to conditions: 12 h. The procedure:
For total RNA isolation, HSC3 cells were plated on 6-well plates, at a density of 0.7 × 10^5 cells/mL (5 mL/well volume), and incubated overnight, followed by treatment with the GLI inhibitor for 12 h at both concentrations (18 and 36 µM).
All experiments were carried out under DNAse/RNAse-free conditions. Silica microcolumns were used for RNA extraction, using an RNeasy Plus Mini Kit (QIAGEN, Hilden, Germany). Extracted RNA was analyzed for quantity and purity, using a NanoDrop®® 1000 spectrophotometer (Thermo Fisher Scientific, Waltham, MA, USA).
Reverse transcription was performed by using Superscript VILO™ transcriptase enzyme (Invitrogen, Carlsbad, CA, USA). The cDNA samples were stored at −20 °C, until the time of use.
HH pathway component expression was evaluated in cells treated or not with GANT61 by qPCR, using TaqMan Gene Expression Assays^TM inventoried for the PTCH1 (Hs00181117_m1), GLI1 (Hs01110766_m1), GLI2 (Hs01119974_m1), and GLI3 (Hs00609233_m1) genes, as well as for B2 M (Hs99999907_m1). […]
Following amplification and dissociation runs, quantification cycle (Cq) values were obtained by using the ViiA7^TM System Operational Program (AppliedByosistems, Foster City, CA, USA). For relative quantification, the comparative method (2−∆∆Cq) described by Livak and Schmittgen, 2001 was used. […]
A general note: Real-time PCR tracks product formation cycle by cycle.

Another assay deals with SCC15. Description: alamarBlue cytotoxicity assay, SCC15. As to conditions: 72 h of incubation. On the procedure:
as §1, §2
In general terms: The colour change of resazurin is a common sign of viable cells or microbes.

The subject of another assay is HT-29. Description: alamarBlue cytotoxicity assay, HT-29. As to conditions: HT-29, alamarBlue, 72 h of incubation. On the procedure: as §1, §2
A further assay relates to SCC4. In words: alamarBlue cytotoxicity assay, SCC4. As to conditions: 72 h of incubation. On the procedure:
as §1, §2

Another assay has as its system SHH protein. Description: Western blot of HH pathway proteins in HSC3 cells, SHH. As to conditions: HSC3, 18 and 36 µM, 24 h. The procedure:
After culturing, HSC3 cells were washed with PBS and denatured by using cell lysis buffer containing 50 mM Tris-HCl (pH 7.4), 1% Triton X-100, 150 mM NaCl, 0.5 mM EGTA, 0.5 EDTA mM, and an anti-protease cocktail (Complete Pro-inhibitor Cocktail Tablets, Roche, Basel, Switzerland). Protein extracts (50 μg) were separated by SDS-PAGE and transferred to Hybond-C Extra (GE Healthcare, Chicago, IL, USA) nitrocellulose membranes. The following antibodies were used in the Western blot assay: mouse […] against Sonic Hedgehog (1:500, Clone 5 H4, Cat. number NBP2-22126, Novus Biologicals, Centennial, CO, USA), rabbit polyclonal against Gli1 (1:500, Novus Biologicals, Cat. number NB600-600), rabbit polyclonal against Patched 1 (1:500, Novus Biologicals, Cat.number NB200-118), and rabbit polyclonal against Smoothened (1:1000, Cat. number AB72130, Abcam, Cambridge, MA, USA). The secondary antibodies were anti-mouse IgG (1:10,000, Santa Cruz Biotechnology, Santa Cruz, CA, USA) and anti-rabbit IgG (1:10,000, GE Healthcare, Chicago, IL, USA). Signal detection was performed by using an ECL + Chemiluminescence Detection System (PerkinElmer, Villebon sur-Yvette, France). The antibody actin (1:10000, Cat. Number15 G5 A11/E2, Invitrogen, Carlsbad, CA, USA) was selected as an endogenous control for analysis of HH pathway component expression in HSC3 cells. […]

The test system of the next assay is APC02. In words: alamarBlue cytotoxicity assay, APC02. As to conditions: 72 h of incubation. The procedure:
as §1, §2

The next assay relates to AGP01. In words: alamarBlue cytotoxicity assay, AGP01. As to conditions: 72 h of incubation. The procedure:
as §1, §2

The test system of another assay is HaCat. Description: alamarBlue cytotoxicity assay, HaCat. As to conditions: 72 h of incubation. The procedure: as §1, §2

The record followed here is publication PMC7503713, “GANT61 Reduces Hedgehog Molecule (GLI1) Expression and Promotes Apoptosis in Metastatic Oral Squamous Cell Carcinoma Cells” (International Journal of Molecular Sciences, 2020).

Each structure is given as a SMILES string. Where only a bound is given, the exact number is not on record here.

For `CN(C)c1ccccc1CN1CCCN(Cc2ccccc2N(C)C)C1c1ccncc1` [GANT61], the IC50 – broadly, the midpoint of a concentration-inhibition curve – in the assay with HL60 is more than 116 µM; in the assay with SCC15, 72.7 µM; in the assay on HT-29 it was more than 116 µM; in the assay with SCC4, 111 µM; in the assay with APC02, more than 116 µM; in the assay on AGP01, more than 116 µM. This compound also registered an IC50 with HaCat of 35.1 µM. Moreover, the “mRNA expression of GLI1” value with GLI1 mRNA (HSC3, 18 µM, not significant) was “Reductions in mRNA expression”. Further, the “mRNA levels of GLI1” value with GLI1 mRNA (HSC3, 36 µM, vs negative (DMSO 0.2%) and positive (5-FU) controls) is listed as “statistically significant reduction”. The SHH protein expression entry in the assay on SHH protein is “reduced levels”.
